Data reported in ChEMBL document CHEMBL1777733, “The discovery and structure-activity relationships of pyrano[3,4-b]indole-based inhibitors of hepatitis C virus NS5B polymerase” (Bioorg Med Chem Lett, 2011).

What was measured:
[1] = tested on: Hepatitis C virus; test: Antiviral activity against HCV genotype 1b infected in human Huh7 cells assessed as decrease in viral NS5A levels after 3 days by ELISA; type: functional, organism-based, Hepacivirus hominis; conditions: Huh-7, 72 h
[2] = Inhibition of HCV BB7 NS5B polymerase after 15 mins; design: species or system Hepacivirus hominis
[3] = Inhibition of HCV BK NS5B polymerase after 15 mins; design: species or system Hepatitis C virus (isolate BK)
[4] = tested on: Hepatitis C virus; test: Antiviral activity against HCV genotype 1b infected in human Huh7 cells assessed as reduction of viral RNA level after 3 days by RT-PCR method; type: functional, organism-based, Hepacivirus hominis; conditions: Huh-7, 72 h

SMILES | EC50 [1] | IC50 [2] | IC50 [3] | EC50 [4]
CCCC1(CC(=O)O)OCCc2c1[nH]c1c(C)c(OC(C)C)cc(C#N)c21 (racemic) | 19.7 µM | 0.22 µM | 0.48 µM | –
CCCC1(CC(=O)O)OCCc2c1[nH]c1c(C)c(OCc3ccccn3)cc(C#N)c21 (racemic) | 0.39 µM | 0.02 µM | 0.02 µM | –
CCCC1(CC(=O)O)OCCc2c1[nH]c1c(C)c(C(=O)NCc3ccccc3)cc(C#N)c21 (racemic) | > 100 µM | 0.67 µM | 0.98 µM | –
CCC[C@]1(CC(=O)O)OCCc2c1[nH]c1c(C)c(OCCn3cccn3)cc(C#N)c21 | – | 0.005 µM | 0.005 µM | –
CCC[C@]1(CC(=O)O)OCCc2c1[nH]c1c(C)c(OCc3cc(C)n(C)n3)cc(C#N)c21 | 0.76 µM | 0.02 µM | 0.03 µM | –
CCCC1(CC(=O)O)OCCc2c1[nH]c1c(C)c(OCC)cc(C#N)c21 (racemic) | 3.5 µM | 0.07 µM | 0.11 µM | –
CC[C@H](C)[C@]1(CC(=O)O)OCCc2c1[nH]c1c(C)c(OC[C@H](C)n3cccn3)cc(C#N)c21 | – | 0.002 µM | 0.002 µM | 0.02 µM
CCC[C@]1(CC(=O)O)OCCc2c1[nH]c1c(C)c(OC[C@@H](C)n3cccn3)cc(C#N)c21 | 0.34 µM | 0.007 µM | 0.007 µM | –
CCCC1(CC(=O)O)OCCc2c1[nH]c1c(C)c(C(=O)NC)cc(C#N)c21 (racemic) | > 100 µM | 0.97 µM | 1.3 µM | –
CCCC1(CC(=O)O)OCCc2c1[nH]c1c(C)c(OCCc3ccncc3)cc(C#N)c21 (racemic) | 8.3 µM | 0.23 µM | 0.31 µM | –
CCCNC(=O)c1cc(C#N)c2c3c([nH]c2c1C)C(CCC)(CC(=O)O)OCC3 (racemic) | > 100 µM | 2 µM | 3 µM | –
CCCC1(CC(=O)O)OCCc2c1[nH]c1c(C)c(C(=O)N(C)C)cc(C#N)c21 (racemic) | > 100 µM | 20 µM | 16 µM | –
CCCC1(CC(=O)O)OCCc2c1[nH]c1c(C)c(OCCOC)cc(C#N)c21 (racemic) | 4.9 µM | 0.09 µM | 0.04 µM | –
CCCC1(CC(=O)O)OCCc2c1[nH]c1c(C)c(C(=O)NCCc3ncc[nH]3)cc(C#N)c21 (racemic) | > 100 µM | 0.56 µM | 0.86 µM | –
CCCC1(CC(=O)O)OCCc2c1[nH]c1c(C)c(OCCN3CCCC3)cc(C#N)c21 (racemic) | 26 µM | 0.95 µM | 1.1 µM | –
CCCC1(CC(=O)O)OCCc2c1[nH]c1c(C)c(OC)cc(C#N)c21 (racemic) | 20 µM | 0.13 µM | 0.36 µM | –
CCCC1(CC(=O)O)OCCc2c1[nH]c1c(C)c(OCc3cnccn3)cc(C#N)c21 (racemic) | 1.6 µM | 0.02 µM | 0.019 µM | –
CCC[C@]1(CC(=O)O)OCCc2c1[nH]c1c(C)ccc(C#N)c21 | – | 0.4 µM | 0.3 µM | –
CCCC1(CC(=O)O)OCCc2c1[nH]c1c(C)c(O)cc(C#N)c21 (racemic) | 47 µM | 0.2 µM | 0.26 µM | –
CCC[C@]1(CC(=O)O)OCCc2c1[nH]c1c(C)c(OC[C@H](C)n3cccn3)cc(C#N)c21 | 0.12 µM | 0.003 µM | 0.003 µM | –
CCCC1(CC(=O)O)OCCc2c1[nH]c1c(C)c(C(=O)NCc3ccc4c(c3)OCO4)cc(C#N)c21 (racemic) | 56 µM | 0.3 µM | 0.54 µM | –
CCCC1(CC(=O)O)OCCc2c1[nH]c1c(C)c(C(=O)NCCc3ccccn3)cc(C#N)c21 (racemic) | > 100 µM | 0.64 µM | 1.2 µM | –
CCC[C@]1(CC(=O)O)OCCc2c1[nH]c1c(C)c(OCc3cc(C)on3)cc(C#N)c21 | 0.48 µM | 0.008 µM | 0.006 µM | –
CCCOc1cc(C#N)c2c3c([nH]c2c1C)C(CCC)(CC(=O)O)OCC3 (racemic) | 2.9 µM | 0.07 µM | 0.07 µM | –
CC[C@H](C)[C@]1(CC(=O)O)OCCc2c1[nH]c1c(C)c(OCCn3cccn3)cc(C#N)c21 | – | 0.003 µM | 0.012 µM | 0.02 µM
